Results: patent publication EP2253620B1, “SUBSTITUTED 3-CYANOQUINOLINES AS PROTEIN TYROSINE KINASES INHIBITORS” (Wyeth Holdings LLC, priority 1998, dated 2000)
≈ marks a conversion by molar mass, not a printed value.

Assays:
[1] = target: T1, epidermal growth factor receptor kinase (Homo sapiens, UniProt P00533); assay: Inhibition of Epidermal Growth Factor Receptor Kinase (EGF-R) using recombinant enzyme; format: biochemical; conditions: averages of the individual determinations
T1 construct: containing the EGFR cDNA encoding amino acids 645 - 1186 preceded by Met-Ala-(His)6; made in house; host or cells: Sf9 insect cells, recombinant baculovirus vHcEGFR52
T1 sequence (P00533 669-1210): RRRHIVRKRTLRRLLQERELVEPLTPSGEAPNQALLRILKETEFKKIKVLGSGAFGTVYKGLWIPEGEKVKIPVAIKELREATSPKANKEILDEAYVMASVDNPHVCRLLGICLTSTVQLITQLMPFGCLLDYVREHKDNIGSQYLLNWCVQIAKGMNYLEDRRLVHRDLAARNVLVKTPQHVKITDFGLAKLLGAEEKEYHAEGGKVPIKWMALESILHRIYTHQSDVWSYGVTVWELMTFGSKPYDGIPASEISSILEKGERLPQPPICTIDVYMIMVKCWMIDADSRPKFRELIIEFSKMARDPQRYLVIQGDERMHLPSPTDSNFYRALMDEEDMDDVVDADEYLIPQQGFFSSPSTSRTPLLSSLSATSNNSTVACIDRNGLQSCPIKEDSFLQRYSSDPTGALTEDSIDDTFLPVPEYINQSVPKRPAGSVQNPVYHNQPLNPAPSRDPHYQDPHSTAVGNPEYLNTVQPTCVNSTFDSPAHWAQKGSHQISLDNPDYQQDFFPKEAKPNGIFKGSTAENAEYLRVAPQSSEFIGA
Description: Representative test compounds were evaluated for their ability to inhibit the phosphorylation of the tyrosine residue of a peptide substrate catalyzed by the enzyme epidermal growth factor receptor kinase. […] The enzyme used in this assay is the His-tagged cytoplasmic domain of EGFR. A recombinant baculovirus (vHcEGFR52) was constructed containing the EGFR cDNA encoding amino acids 645 - 1186 preceded by Met-Ala-(His)6. Sf9 cells in 100 mm plates were infected at an moi of 10 pfu/cell and cells were harvested 48 h post infection. A cytoplasmic extract was prepared using 1% Triton X-100 and applied to Ni-NTA column. After washing the column with 20 mM imidazole, HcEGFR was eluted with 250 mM imidazole (in 50 mM Na2HPO4, pH 8.0, 300 mM NaCl). Fractions collected were dialyzed against 10 mM HEPES, pH 7.0, 50 mM NaCl, 10% glycerol, 1ug/mL antipain and leupeptin and 0.1 mM Pefabloc SC. The protein was frozen in dry ice/methanol and stored -70°C.
Test compounds were made into 10 mg/mL stock solutions in 100% dimethylsulfoxide (DMSO). Prior to experiment, stock solutions were diluted to 500 uM with 100% DMSO and then serially diluted to the desired concentration with HEPES buffer (30 mM HEPES pH 7.4).
For the enzyme reaction, 10 µL of each inhibitor (at various concentrations) were added to each well of a 96-well plate. To this was added 3 µL of enzyme (1:10 dilution in 10mM HEPES, pH 7.4 for final conc. of 1:120). This was allowed to sit for 10 min on ice and was followed by the addition of 5 µl peptide (80 µM final conc.), 10 µl of 4X Buffer (Table A), 0.25 µL ^33P-ATP and 12 µL H2O. The reaction was allowed to run for 90 min at room temperature and was followed by spotting the entire volume on to precut P81 filter papers. The filter discs were washed 2X with 0.5% phosphoric acid and radioactivity was measured using a liquid scintillation counter.
The % inhibition of the test compound was determined for at least three different concentrations and the IC50 value was evaluated from the dose response curve. […] CPM(control) is in units of counts per minute and was a number expressing the amount of radiolabled ATP (g-^33P) incorporated into the RR-SRC peptide substrate by the enzyme after 90 minutes at room temperature in the absence of test compound as measured by liquid scintillation counting. The CPM values were corrected for the background counts produced by ATP in the absence of the enzymatic reaction. The IC50 values in TABLE 1 are averages of the individual determinations.

[2] = test system: 3T3; assay: Inhibition of Cancer Cell Growth as Measured by Cell Number; format: cell-based; conditions: 48 hours exposure, Sulforhodamine B; for IC50: Mus musculus, NIH3T3
Description: (§1) Inhibition of Cancer Cell Growth as Measured bv Cell Number
(§2) Human tumor cell lines were plated in 96-well plates (250 µl/well, 1-6 x 10^4 cells/ml) in RPMI 1640 medium, containing 5% FBS (Fetal Bovine Serum). […] After 48 hours exposure to test compounds, cells were fixed with trichloroacetic acid, and stained with Sulforhodamine B. After washing with trichloroacetic acid, bound dye was solubilized in 10 mM Tris base and optical density was determined using plate reader. Under conditions of the assay the optical density is proportional to the number of cells in the well. […] The test procedure is described in details by Philip Skehan et. al, J.Natl. Canc. Inst., 82, 1107-1112 (1990). […] Information about some of the cell lines used in these test procedures is available from the American Type Tissue Collection: Cell Lines and Hybridomas, 1994 Reference Guide, 8th Edition.

[3] = test system: Her2/3T3; assay: as above; format: cell-based; conditions: 48 hours exposure, Sulforhodamine B
Description: as §1, §2

[4] = test system: SKBR3; assay: as above; format: cell-based, Human; conditions: 48 hours exposure, Sulforhodamine B; for IC50: Homo sapiens, SK-BR-3
Description: as §1, §2

[5] = test system: MDAMB435; assay: as above; format: cell-based, Human; conditions: 48 hours exposure, Sulforhodamine B; for IC50: Homo sapiens, MDA-MB-435
Description: as §1, §2

[6] = test system: A431; assay: as above; format: cell-based, Human; conditions: 48 hours exposure, Sulforhodamine B; for IC50: Homo sapiens, A-431
Description: as §1, §2

[7] = test system: SW620; assay: as above; format: cell-based, Human; conditions: 48 hours exposure, Sulforhodamine B; for IC50: Homo sapiens, SW-620
Description: as §1, §2

[8] = test system: Human Epidermoid Tumors (A431); assay: In Vivo Inhibition of the Growth of Human Epidermoid Tumors (A431) in mice; conditions: for Relative Tumor Growth Day 7 / % T/C Day 7 / Relative Tumor Growth Day 14 / % T/C Day 14 / Relative Tumor Growth Day 20 / % T/C Day 20 / Relative Tumor Growth Day 28 / % T/C Day 28 / S/T (# of Survivors/# of Treated) / Relative Tumor Growth Day 21 / % T/C Day 21: days 1 through 10; for % T/C Day 7 / % T/C Day 14 / % T/C Day 20 / % T/C Day 28 / % T/C Day 21: * = p < 0.01; for S/T (# of Survivors/# of Treated): Day +28 post tumor staging
Description: In Vivo Inhibition of the Growth of Human Epidermoid Tumors (A431)
BALB/c nu/nu female mice (Charles River, Wilmington, MA) were used in the in vivo standard pharmacological test procedures. Human epidermoid carcinoma cells A-431 (American Type Culture Collection, Rockville, Maryland # CRL-155) were grown in vitro as described above. A unit of 5 X 10^6 cells were injected SC into mice. […] Control animals received no drug. […] […] The %T/C (Tumor/Control) is determined by dividing the relative tumor growth of the treated group by the relative tumor growth of the placebo group and multiplying by 100.

## COc1cc2ncc(C#N)c(Nc3ccc(F)c(Cl)c3)c2cc1NC(=O)C=CCN1CCCC(CO)C1.Cl (stereo not shown) [Example 91, 4-(3-Hydroxymethyl-piperidin-1-yl)-but-2-enoic acid [4-(3-chloro-4-fluoro-phenylamino)-3-cyano-7-methoxy-quinolin-6-yl]-amide hydrochloride]
[1]
  IC50: 15 nM
[2]
  IC50: 2.87 µg/mL
[3]
  IC50: 0.375 µg/mL
[4]
  IC50: 0.181 µg/mL
[5]
  IC50: 1.83 µg/mL
[6]
  IC50: 0.232 µg/mL
[7]
  IC50: 1.73 µg/mL

## COC[C@@H]1CCCN1CC=CC(=O)Nc1cc2c(Nc3ccc(F)c(Cl)c3)c(C#N)cnc2cc1OC.Cl.Cl [Example 90, (S)-4-(2-Methoxymethyl-pyrrolidin-1-yl)-but-2-enoic acid [4-(3-chloro-4-fluoro-phenylamino)-3-cyano-7-methoxy-quinolin-6-yl]-amide dihydrochloride]
[2]
  IC50: 2.1 µg/mL
[3]
  IC50: 0.329 µg/mL
[4]
  IC50: 0.148 µg/mL
[5]
  IC50: 1.74 µg/mL
[6]
  IC50: 0.234 µg/mL
[7]
  IC50: 1.24 µg/mL

## COc1cc2ncc(C#N)c(Nc3ccc(F)c(Cl)c3)c2cc1NC(=O)C=CCN1CCC2(CC1)OCCO2 [Example 92, 4-(1,4-Dioxa-8-aza-spiror[4.5]dec-8-yl)-but-2-enoic acid [4-(3-chloro-4-fluoro-phenylamino)-3-cvano-7-methox-quinolin-6-yl]-amide]
[2]
  IC50 3T3: 2.79 µg/mL (≈ 5.05 µM)
[3]
  IC50 Her2/3T3: 0.35 µg/mL (≈ 0.634 µM)
[8]; Table 4, 10 mg/kg/dose PO
  Relative Tumor Growth Day 7: 3.94
  % T/C Day 7: 72%
  Relative Tumor Growth Day 14: 10.41
  % T/C Day 14: 100%
  Relative Tumor Growth Day 20: 14.76
  % T/C Day 20: 119%
  Relative Tumor Growth Day 28: 22.51
  % T/C Day 28: 159%
  S/T (# of Survivors/# of Treated): 5/5
[8]; Table 4, 40 mg/kg/dose PO
  Relative Tumor Growth Day 7: 1.49
  % T/C Day 7: 27* %
  Relative Tumor Growth Day 14: 1.58
  % T/C Day 14: 15* %
  Relative Tumor Growth Day 20: 2.60
  % T/C Day 20: 21* %
  Relative Tumor Growth Day 28: 6.22
  % T/C Day 28: 44%
  S/T (# of Survivors/# of Treated): 5/5
[8]; given orally at 40 mg/Kg
  inhibition of tumor growth in vivo: effective inhibitor of tumor growth in vivo
[4]
  IC50 SKBR3: 0.188 µg/mL (≈ 0.341 µM)
[5]
  IC50 MDAMB435: 3.32 µg/mL (≈ 6.01 µM)
[6]
  IC50 A431: 0.283 µg/mL (≈ 0.513 µM)
[7]
  IC50 SW620: 2.51 µg/mL (≈ 4.55 µM)

## COCCN(C)CC=CC(=O)Nc1cc2c(Nc3ccc(F)c(Cl)c3)c(C#N)cnc2cc1OC.Cl.Cl [Example 89, 4-[(2-Methoxy-ethyl)-methyl-amino]-but-2-enoic acid [4-(3-chloro-4-fluoro-phenylamino)-3-cyano-7-methoxy-quinolin-6-yl]-amide dihydrochloride]
[1]
  IC50: 10 nM
[2]
  IC50: 2.04 µg/mL
[3]
  IC50: 0.192 µg/mL
[8]; Table 5, 10 mg/kg/dose PO
  Relative Tumor Growth Day 7: 2.09
  % T/C Day 7: 50* %
  Relative Tumor Growth Day 14: 3.37
  % T/C Day 14: 32* %
  Relative Tumor Growth Day 21: 5.76
  % T/C Day 21: 38* %
  Relative Tumor Growth Day 28: 7.24
  % T/C Day 28: 26* %
  S/T (# of Survivors/# of Treated): 4/5
[8]; Table 5, 40 mg/kg/dose PO
  Relative Tumor Growth Day 7: 0.49
  % T/C Day 7: 11* %
  Relative Tumor Growth Day 14: 0.58
  % T/C Day 14: 6* %
  Relative Tumor Growth Day 21: 3.11
  % T/C Day 21: 21* %
  Relative Tumor Growth Day 28: 7.20
  % T/C Day 28: 26* %
  S/T (# of Survivors/# of Treated): 5/5
[8]; given orally at 40 mg/Kg and 10 mg/Kg
  inhibition of tumor growth in vivo: effective inhibitor of tumor growth in vivo
[4]
  IC50: 0.107 µg/mL
[5]
  IC50: 2.07 µg/mL
[6]
  IC50: 0.245 µg/mL
[7]
  IC50: 1.53 µg/mL
